# Source: the kinase profiling compilation of Christmann-Franck et al. (2016)
# Assays:
# Assay in all cases: radiometric filter-binding kinase assay
# [1] = system: AKT1 (human), P31749 [S473D]
# BRSK1 (human) = BRSK1 (human) (UniProt Q8TDC3)
# CHEK2 (human) = CHEK2 (human) (UniProt O96017)
# CSNK2A1 (human) = CSNK2A1 (human) (UniProt P68400)
# DAPK1 (human) = DAPK1 (human) (UniProt P53355)
# EEF2K (human) = EEF2K (human) (UniProt O00418)
# EPHA2 (human) = EPHA2 (human) (UniProt P29317)
# FGFR1 (human) = FGFR1 (human) (UniProt P11362)
# Chain of FGFR1 (human) (P11362 whole entry, looked up): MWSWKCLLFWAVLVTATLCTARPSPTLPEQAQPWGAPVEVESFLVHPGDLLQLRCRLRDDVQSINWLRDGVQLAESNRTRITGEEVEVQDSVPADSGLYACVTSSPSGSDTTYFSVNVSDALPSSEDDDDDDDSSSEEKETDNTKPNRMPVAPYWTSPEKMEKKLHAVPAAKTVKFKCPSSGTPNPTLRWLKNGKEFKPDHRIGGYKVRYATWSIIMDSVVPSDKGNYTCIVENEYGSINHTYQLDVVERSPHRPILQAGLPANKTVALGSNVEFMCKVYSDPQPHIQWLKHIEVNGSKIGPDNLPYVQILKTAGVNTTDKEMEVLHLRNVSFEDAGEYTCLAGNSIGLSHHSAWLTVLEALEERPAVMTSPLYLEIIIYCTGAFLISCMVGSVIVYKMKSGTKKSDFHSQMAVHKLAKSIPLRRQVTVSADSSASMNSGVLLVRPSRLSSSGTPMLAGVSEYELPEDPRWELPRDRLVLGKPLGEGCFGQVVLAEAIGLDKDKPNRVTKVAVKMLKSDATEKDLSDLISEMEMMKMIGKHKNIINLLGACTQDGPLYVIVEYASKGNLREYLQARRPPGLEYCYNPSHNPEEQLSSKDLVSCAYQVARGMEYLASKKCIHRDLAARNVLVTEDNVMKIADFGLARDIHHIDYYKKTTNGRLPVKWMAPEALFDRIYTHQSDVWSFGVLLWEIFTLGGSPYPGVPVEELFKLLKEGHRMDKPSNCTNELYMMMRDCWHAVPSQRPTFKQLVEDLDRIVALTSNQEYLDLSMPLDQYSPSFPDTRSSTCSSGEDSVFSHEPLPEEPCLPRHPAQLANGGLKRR
# GSK3B (human) = GSK3B (human) (UniProt P49841)
# IKBKE (human) = IKBKE (human) (UniProt Q14164)
# IRAK4 (human) = IRAK4 (human) (UniProt Q9NWZ3)
# MAP3K7 (human) = MAP3K7 (human) (UniProt O43318)
# Chain of MAP3K7 (human) (O43318 whole entry, looked up): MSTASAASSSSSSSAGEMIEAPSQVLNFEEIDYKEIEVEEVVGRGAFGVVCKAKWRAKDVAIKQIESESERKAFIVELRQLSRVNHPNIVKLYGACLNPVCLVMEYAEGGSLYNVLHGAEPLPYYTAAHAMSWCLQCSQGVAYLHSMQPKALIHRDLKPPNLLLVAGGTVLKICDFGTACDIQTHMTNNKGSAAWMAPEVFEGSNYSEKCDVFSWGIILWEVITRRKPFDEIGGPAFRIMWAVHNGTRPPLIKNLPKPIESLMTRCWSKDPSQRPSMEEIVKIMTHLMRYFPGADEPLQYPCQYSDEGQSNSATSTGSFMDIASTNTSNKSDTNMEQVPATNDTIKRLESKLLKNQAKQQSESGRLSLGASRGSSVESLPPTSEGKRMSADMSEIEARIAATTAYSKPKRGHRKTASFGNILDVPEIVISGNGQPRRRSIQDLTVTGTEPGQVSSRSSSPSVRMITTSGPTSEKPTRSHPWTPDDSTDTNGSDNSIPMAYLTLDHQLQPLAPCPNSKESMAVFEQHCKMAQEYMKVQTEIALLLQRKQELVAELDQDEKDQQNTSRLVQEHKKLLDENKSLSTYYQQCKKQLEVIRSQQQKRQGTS
# MAP3K9 (human) = MAP3K9 (human) (UniProt P80192)
# MAP4K3 (human) = MAP4K3 (human) (UniProt Q8IVH8); conditions: compound 1.0 µM
# MAPK12 (human) = MAPK12 (human) (UniProt P53778)
# MAPK3 (human) = MAPK3 (human) (UniProt P27361)
# Chain of MAPK3 (human) (P27361 whole entry, looked up): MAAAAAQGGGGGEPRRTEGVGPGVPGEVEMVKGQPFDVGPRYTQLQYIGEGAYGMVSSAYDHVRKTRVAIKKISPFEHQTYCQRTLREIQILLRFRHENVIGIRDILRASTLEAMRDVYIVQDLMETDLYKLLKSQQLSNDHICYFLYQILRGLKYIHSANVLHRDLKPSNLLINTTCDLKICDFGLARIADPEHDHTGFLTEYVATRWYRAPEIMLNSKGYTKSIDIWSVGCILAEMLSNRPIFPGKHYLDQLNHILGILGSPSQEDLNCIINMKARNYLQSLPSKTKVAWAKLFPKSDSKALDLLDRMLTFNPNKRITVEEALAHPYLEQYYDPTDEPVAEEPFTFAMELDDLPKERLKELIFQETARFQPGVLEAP
# MAPK8 (human) = MAPK8 (human) (UniProt P45983)
# Chain of MAPK8 (human) (P45983 whole entry, looked up): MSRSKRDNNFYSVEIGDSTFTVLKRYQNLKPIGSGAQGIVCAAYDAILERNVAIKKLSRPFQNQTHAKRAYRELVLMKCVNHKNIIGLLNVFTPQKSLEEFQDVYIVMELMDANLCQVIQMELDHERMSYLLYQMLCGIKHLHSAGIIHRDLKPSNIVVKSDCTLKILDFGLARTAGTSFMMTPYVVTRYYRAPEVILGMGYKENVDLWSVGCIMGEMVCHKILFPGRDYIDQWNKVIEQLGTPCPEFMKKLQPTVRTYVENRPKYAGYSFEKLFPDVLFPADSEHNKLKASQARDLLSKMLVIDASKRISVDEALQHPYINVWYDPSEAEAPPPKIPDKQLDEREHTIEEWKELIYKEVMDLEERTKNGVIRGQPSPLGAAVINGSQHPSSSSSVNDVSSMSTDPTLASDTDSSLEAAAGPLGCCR
# MARK3 (human) = MARK3 (human) (UniProt P27448)
# MARK4 (human) = MARK4 (human) (UniProt Q96L34)
# MYLK (human) = MYLK (human) (UniProt Q15746)
# NEK2 (human) = NEK2 (human) (UniProt P51955)
# [2] = system: OXSR1 (human), O95747 [T185E]
# PAK6 (human) = PAK6 (human) (UniProt Q9NQU5)
# PTK6 (human) = PTK6 (human) (UniProt Q13882)
# RPS6KA1 KD1 KD2 (human) = RPS6KA1 KD1 KD2 (human) (UniProt Q15418)
# [3] = system: SGK1 (human), O00141 [S422D]
# SIK2 (human) = SIK2 (human) (UniProt Q9H0K1)
# SRPK1 (human) = SRPK1 (human) (UniProt Q96SB4)
# TLK1 (human) = TLK1 (human) (UniProt Q9UKI8)
# TTBK1 (human) = TTBK1 (human) (UniProt Q5TCY1)
# TTK (human) = TTK (human) (UniProt P33981)
# ULK1 (human) = ULK1 (human) (UniProt O75385)
# Chain of CHEK2 (human) (O96017 whole entry, looked up): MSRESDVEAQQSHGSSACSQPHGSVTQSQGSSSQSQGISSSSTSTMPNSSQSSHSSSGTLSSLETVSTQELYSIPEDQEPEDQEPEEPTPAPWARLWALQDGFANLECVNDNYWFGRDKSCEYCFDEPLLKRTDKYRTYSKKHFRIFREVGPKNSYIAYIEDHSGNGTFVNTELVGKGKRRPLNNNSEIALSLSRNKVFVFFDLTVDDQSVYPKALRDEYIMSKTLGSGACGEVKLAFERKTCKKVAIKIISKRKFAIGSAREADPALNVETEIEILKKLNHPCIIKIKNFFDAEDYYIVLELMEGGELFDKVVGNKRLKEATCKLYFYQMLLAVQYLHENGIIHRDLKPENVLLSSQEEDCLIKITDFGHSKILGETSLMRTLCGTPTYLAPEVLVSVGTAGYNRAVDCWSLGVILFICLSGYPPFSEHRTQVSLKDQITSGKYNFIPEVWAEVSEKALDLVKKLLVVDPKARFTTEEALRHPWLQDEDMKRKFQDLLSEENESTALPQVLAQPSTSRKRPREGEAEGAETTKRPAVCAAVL
# Chain of DAPK1 (human) (P53355 whole entry, looked up): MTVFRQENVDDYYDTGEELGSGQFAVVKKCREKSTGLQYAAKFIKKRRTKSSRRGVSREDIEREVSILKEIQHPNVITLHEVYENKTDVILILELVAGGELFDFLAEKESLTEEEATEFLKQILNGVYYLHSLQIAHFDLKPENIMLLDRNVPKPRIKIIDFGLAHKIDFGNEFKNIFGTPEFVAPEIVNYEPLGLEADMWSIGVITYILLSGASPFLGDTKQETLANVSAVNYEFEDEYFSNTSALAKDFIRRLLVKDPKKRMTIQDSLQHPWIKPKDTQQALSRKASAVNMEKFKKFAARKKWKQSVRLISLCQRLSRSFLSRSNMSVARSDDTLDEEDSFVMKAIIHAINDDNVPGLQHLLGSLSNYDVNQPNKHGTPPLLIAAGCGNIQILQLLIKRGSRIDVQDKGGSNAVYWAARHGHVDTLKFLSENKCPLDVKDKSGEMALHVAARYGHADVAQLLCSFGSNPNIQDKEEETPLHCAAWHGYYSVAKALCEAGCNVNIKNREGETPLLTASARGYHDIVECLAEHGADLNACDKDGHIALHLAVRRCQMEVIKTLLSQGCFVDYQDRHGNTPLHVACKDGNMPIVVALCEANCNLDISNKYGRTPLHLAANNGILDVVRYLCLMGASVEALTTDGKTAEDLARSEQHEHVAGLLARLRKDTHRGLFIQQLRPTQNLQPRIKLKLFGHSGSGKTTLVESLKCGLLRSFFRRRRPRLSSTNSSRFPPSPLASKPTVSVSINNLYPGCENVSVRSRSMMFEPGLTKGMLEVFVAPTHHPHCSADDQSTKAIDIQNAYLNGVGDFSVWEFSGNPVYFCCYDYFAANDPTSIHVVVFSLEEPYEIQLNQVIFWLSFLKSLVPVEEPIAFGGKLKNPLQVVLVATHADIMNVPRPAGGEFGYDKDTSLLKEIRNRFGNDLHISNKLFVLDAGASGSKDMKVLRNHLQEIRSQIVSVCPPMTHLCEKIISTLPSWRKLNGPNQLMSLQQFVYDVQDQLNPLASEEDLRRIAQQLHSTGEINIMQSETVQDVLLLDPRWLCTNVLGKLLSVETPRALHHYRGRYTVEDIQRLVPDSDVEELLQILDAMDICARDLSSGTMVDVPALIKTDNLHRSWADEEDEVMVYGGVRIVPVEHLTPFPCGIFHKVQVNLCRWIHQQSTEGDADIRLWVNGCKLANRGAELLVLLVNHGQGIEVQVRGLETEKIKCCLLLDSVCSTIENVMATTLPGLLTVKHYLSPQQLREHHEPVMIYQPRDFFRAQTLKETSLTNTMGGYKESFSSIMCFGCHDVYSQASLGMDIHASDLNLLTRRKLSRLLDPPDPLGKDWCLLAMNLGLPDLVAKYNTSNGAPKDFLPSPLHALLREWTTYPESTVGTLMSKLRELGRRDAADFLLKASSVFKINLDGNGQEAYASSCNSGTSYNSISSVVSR
# Chain of AKT1 (human), P31749 [S473D] (P31749 whole entry S473D, looked up): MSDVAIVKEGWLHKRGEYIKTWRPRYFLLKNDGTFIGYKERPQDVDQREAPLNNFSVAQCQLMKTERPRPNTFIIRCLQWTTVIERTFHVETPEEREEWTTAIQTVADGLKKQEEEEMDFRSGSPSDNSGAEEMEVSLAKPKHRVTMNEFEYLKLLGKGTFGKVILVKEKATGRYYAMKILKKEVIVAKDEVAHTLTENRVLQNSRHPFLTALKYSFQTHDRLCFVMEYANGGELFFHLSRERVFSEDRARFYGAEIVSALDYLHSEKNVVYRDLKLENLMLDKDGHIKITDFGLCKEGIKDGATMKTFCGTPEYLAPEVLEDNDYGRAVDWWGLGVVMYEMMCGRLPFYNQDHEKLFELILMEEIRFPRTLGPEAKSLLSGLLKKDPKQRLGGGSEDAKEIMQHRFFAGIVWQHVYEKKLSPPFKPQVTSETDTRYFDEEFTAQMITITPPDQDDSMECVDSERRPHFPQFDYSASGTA
structure (smiles),measurement,setting,value
CNc1nc(Nc2ccc(C(=O)N3CCOCC3)cc2OC)ncc1Cl,residual activity,[1]; compound 1.0 µM,53%
same,residual activity,[1]; compound 10.0 µM,85%
same,residual activity,BRSK1 (human); compound 1.0 µM,59%
same,residual activity,BRSK1 (human); compound 10.0 µM,78%
same,residual activity,CHEK2 (human); compound 1.0 µM,52%
same,residual activity,CHEK2 (human); compound 10.0 µM,96%
same,residual activity,CSNK2A1 (human); compound 1.0 µM,50%
same,residual activity,CSNK2A1 (human); compound 10.0 µM,88%
same,residual activity,DAPK1 (human); compound 1.0 µM,61%
same,residual activity,DAPK1 (human); compound 10.0 µM,23%
same,residual activity,EEF2K (human); compound 1.0 µM,83%
same,residual activity,EEF2K (human); compound 10.0 µM,86%
same,residual activity,EPHA2 (human); compound 1.0 µM,93%
same,residual activity,EPHA2 (human); compound 10.0 µM,97%
same,residual activity,FGFR1 (human); compound 1.0 µM,89%
same,residual activity,FGFR1 (human); compound 10.0 µM,86%
same,residual activity,GSK3B (human); compound 1.0 µM,100%
same,residual activity,GSK3B (human); compound 10.0 µM,98%
same,residual activity,IKBKE (human); compound 1.0 µM,77%
same,residual activity,IKBKE (human); compound 10.0 µM,75%
same,residual activity,IRAK4 (human); compound 1.0 µM,90%
same,residual activity,IRAK4 (human); compound 10.0 µM,86%
same,residual activity,MAP3K7 (human); compound 1.0 µM,74%
same,residual activity,MAP3K7 (human); compound 10.0 µM,25%
same,residual activity,MAP3K9 (human); compound 1.0 µM,38%
same,residual activity,MAP3K9 (human); compound 10.0 µM,18%
same,residual activity,MAP4K3 (human),94%
same,residual activity,MAPK12 (human); compound 1.0 µM,88%
same,residual activity,MAPK12 (human); compound 10.0 µM,94%
same,residual activity,MAPK3 (human); compound 1.0 µM,95%
same,residual activity,MAPK3 (human); compound 10.0 µM,104%
same,residual activity,MAPK8 (human); compound 1.0 µM,89%
same,residual activity,MAPK8 (human); compound 10.0 µM,37%
same,residual activity,MARK3 (human); compound 1.0 µM,91%
same,residual activity,MARK3 (human); compound 10.0 µM,78%
same,residual activity,MARK4 (human); compound 1.0 µM,82%
same,residual activity,MARK4 (human); compound 10.0 µM,72%
same,residual activity,MYLK (human); compound 1.0 µM,83%
same,residual activity,MYLK (human); compound 10.0 µM,55%
same,residual activity,NEK2 (human); compound 1.0 µM,63%
same,residual activity,NEK2 (human); compound 10.0 µM,90%
same,residual activity,[2]; compound 1.0 µM,108%
same,residual activity,[2]; compound 10.0 µM,82%
same,residual activity,PAK6 (human); compound 1.0 µM,90%
same,residual activity,PAK6 (human); compound 10.0 µM,98%
same,residual activity,PTK6 (human); compound 1.0 µM,56%
same,residual activity,PTK6 (human); compound 10.0 µM,39%
same,residual activity,RPS6KA1 KD1 KD2 (human); compound 1.0 µM,87%
same,residual activity,RPS6KA1 KD1 KD2 (human); compound 10.0 µM,54%
same,residual activity,[3]; compound 1.0 µM,94%
same,residual activity,[3]; compound 10.0 µM,91%
same,residual activity,SIK2 (human); compound 1.0 µM,49%
same,residual activity,SIK2 (human); compound 10.0 µM,47%
same,residual activity,SRPK1 (human); compound 1.0 µM,96%
same,residual activity,SRPK1 (human); compound 10.0 µM,94%
same,residual activity,TLK1 (human); compound 1.0 µM,61%
same,residual activity,TLK1 (human); compound 10.0 µM,100%
same,residual activity,TTBK1 (human); compound 1.0 µM,88%
same,residual activity,TTBK1 (human); compound 10.0 µM,91%
same,residual activity,TTK (human); compound 1.0 µM,71%
same,residual activity,TTK (human); compound 10.0 µM,57%
same,residual activity,ULK1 (human); compound 1.0 µM,62%
same,residual activity,ULK1 (human); compound 10.0 µM,85%
